Entries after “also recorded” stand apart in the source; their conditions may differ. Where two headings read alike, the source gives them in different places. Blank lines part the entries; values can stand above or below the compound they belong to.
Tests used:
PKM2 expression = assay: EGF-induced PKM2 upregulation, immunoblotting; type: cell-based, human; conditions: U87/EGFR cells; pretreatment before EGF 100 ng/mL 12 h; AG1478 1 μM, cycloheximide 200 μg/mL, Bis-I 2 μM, Go6976 2 μM, NF-κB activation inhibitor II 7 μM, AKT inhibitor 10 μM, TBB 50 μM, U73122 2 μM
Experimental: FIG. 56: EGFR activation results in upregulation of PKM2 expression. A-D: Immunoblotting analyses were performed with or without the indicated antibodies. A: The indicated cell lines were treated with EGF (100 ng/mL) for 12 h. B: U87 cells were stably transfected with plasmids expressing EGFR or EGFRvIII. […] D: U87/EGFR cells were pretreated with or without cycloheximide (CHX) (200 μg/mL) for 30 min before EGF (100 ng/mL) treatment for 12 h. […] The relative mRNA levels of PKM2 and PKM1 were normalized to the levels of untreated cells and β-actin mRNA. Data represent the mean±SD of three independent experiments.
FIG. 57: EGF increases PKM2 expression in a PKC- and NF-κB-dependent manner. A-D, H: Immunoblotting analyses were performed with the indicated antibodies. […] ChIP assay was performed with an anti-RelA antibody for immunoprecipitation, followed by PCR with PKM promoter-specific primers. F: An oligonucleotide containing the putative WT or mutated NF-κB binding sequence was labeled using [γ-^32P] ATP and T4 polynucleotide kinase. […] Samples were subjected to 5% polyacrylamide gel electrophoresis, and the dried gel was exposed to x-ray film. […] The relative levels of luciferase activity were normalized to the levels of untreated cells and to the levels of luciferase activity of the Renilla control plasmid. Data represent the mean±standard deviation of three independent experiments.
FIG. 58: PKCε downstream from PLCγ1, rather than TAK1, activates IKKβ and subsequently increases PKM2 expression. […] B: U87/EGFR cells were treated with TNFα (10 ng/mL) for the indicated time. C: U87/EGFR cells were treated with or without EGF (100 ng/mL) or TNFα (10 ng/mL) for 4 h. […] HIF1α was immunodepleted from the cell lysates by incubation with an anti-HIF1α antibody, which was followed by a ChIP assay with an anti-FLAG antibody for immunoprecipitation of FLAG-RelA and PCR analysis with PKM promoter-specific primers. […] F: 293T cells were transiently transfected with constitutively active (+) or kinase-dead (−) PKC mutants. […] H, I: 293T cells were transiently transfected with the indicated plasmids.

PKCε = target: T1, PKCε (Homo sapiens, UniProt Q02156); assay: TPA-induced, PKC kinase activity-dependent degradation of PKCε; type: cell-based; conditions: U87/EGFR cells; Bis-I 2 μM 30 min before TPA 8 h
T1 construct: endogenous in cells; host or cells: U87/EGFR
T1 sequence (Q02156 1-737): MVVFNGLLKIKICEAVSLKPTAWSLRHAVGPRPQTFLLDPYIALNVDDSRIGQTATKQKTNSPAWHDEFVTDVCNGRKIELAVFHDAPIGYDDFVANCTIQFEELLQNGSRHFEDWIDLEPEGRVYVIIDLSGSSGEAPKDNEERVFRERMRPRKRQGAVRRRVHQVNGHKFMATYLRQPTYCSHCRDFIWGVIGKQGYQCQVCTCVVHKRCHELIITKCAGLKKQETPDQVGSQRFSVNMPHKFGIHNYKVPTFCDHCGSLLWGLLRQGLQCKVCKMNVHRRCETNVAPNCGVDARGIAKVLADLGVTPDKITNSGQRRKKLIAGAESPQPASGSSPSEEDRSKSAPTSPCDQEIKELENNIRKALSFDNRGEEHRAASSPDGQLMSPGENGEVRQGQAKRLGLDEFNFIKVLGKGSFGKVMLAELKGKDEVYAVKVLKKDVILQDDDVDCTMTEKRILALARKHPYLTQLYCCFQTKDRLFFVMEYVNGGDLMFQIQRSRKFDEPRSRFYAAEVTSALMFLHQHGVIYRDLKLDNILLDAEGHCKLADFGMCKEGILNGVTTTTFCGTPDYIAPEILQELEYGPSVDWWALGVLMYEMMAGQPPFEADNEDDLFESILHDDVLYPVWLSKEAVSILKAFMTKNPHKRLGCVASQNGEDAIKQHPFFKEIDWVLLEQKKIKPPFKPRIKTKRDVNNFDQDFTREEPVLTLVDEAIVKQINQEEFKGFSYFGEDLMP
Experimental: (§1) FIG. 63: PKC, NF-κB, PI3-K, and CK2 are inhibited by their inhibitors. A, B: U87/EGFR cells were treated with Bis-I (2 μM) (A) or Go6976 (2 μM) (B) for 30 min before 12-O-tetradecanoylphorbol-13-acetate (TPA) ([…]) for 8 h. Immunoblotting analyses were performed with the indicated antibodies. C: U87/EGFR cells transiently expressing a luciferase reporter vector containing the IκBα promoter were pretreated with or without NF-κB activation inhibitor II (7 μM) for 30 min before TNFα (10 ng/mL) for 8 h. The relative levels of luciferase activity were normalized to the levels of untreated cells and to the levels of luciferase activity of the Renilla control plasmid. Data represent the mean±standard deviation of three independent experiments. […] Immunoblotting analyses were performed with the indicated antibodies.

PKCα = target: T2, PKCα (Homo sapiens, UniProt P17252); assay: TPA-induced, PKC kinase activity-dependent degradation of PKCα; type: cell-based; conditions: U87/EGFR cells; Go6976 2 μM 30 min before TPA 8 h
T2 construct: endogenous in cells; host or cells: U87/EGFR
Experimental: as §1

PKM2 [1] = assay: EGF-induced nuclear translocation of PKM2 (cell fractionation, immunoblotting, immunofluorescence); type: cell-based, human
Experimental: Immunoblotting analyses (b, b) were performed with the indicated antibodies. Nuclear PCNA and cytoplasmic tubulin were used as controls. a: The indicated cells were immunostained with an anti-PKM2 antibody.
Immunoblotting and immunoprecipitation analyses were performed with the indicated antibodies. a: Nuclear fractions were prepared from U87/EGFR cells pretreated with LY290042 (30 μM), SU6656 (4 μM), SP600125 (25 μM), and U0126 (20 μM) for 30 min before EGF (100 ng/mL) for 6 h. Nuclear PCNA and cytoplasmic tubulin were used as controls. b: U87/EGFR cells were pretreated with or without U0126 (20 μM) for 30 min before EGF (100 ng/mL) for 6 h. Immunofluorescence analyses were performed with the indicated antibodies. Nuclei were stained with Hoechst 33342 (blue). c: U251 cells were stably transfected with a vector with or without expressing FLAG-ERK2 K52R (left panel) or transiently transfected with vectors expressing MEK1 Q56P and indicated FLAG-tagged ERK2 proteins (right panel). The cells were treated with or without EGF (100 ng/mL) for 6 h, and the total cell lysates and nuclear fractions were prepared. d: FLAG-PKM2 or FLAG-PKM1 was immunoprecipitated with an anti-FLAG antibody from U87/EGFR cells treated with or without EGF (100 ng/mL) for 30 min. e: Bacterially-purified GST-ERK2 immobilized on glutathione agarose beads was mixed with or without purified His-PKM2. GST pull-down analyses were performed. Ten percent of total His-PKM2 was used as an input. f: U87/EGFR cells transfected with vectors expressing the indicated FLAG-tagged ERK proteins were treated with or without EGF (100 ng/mL) for 30 min. g: U87/EGFR cells expressing the indicated FLAG-PKM2 proteins were treated with or without EGF (100 ng/mL) for 30 min.
(§2) Immunofluorescence analyses of endogenous PKM2 or transiently expressed FLAG-PKM1 were performed with the indicated antibodies. […] Immunoblotting analyses were performed with the indicated antibodies. Nuclear PCNA was used as controls for immunoblotting analyses. c: An equal volume of cytosolic and nuclear fractions were prepared from U87/EGFR cells treated with or without EGF (100 ng/mL) for 6 h. Ten microliters of protein from cytosolic and nuclear fractions were used for immunoblotting analyses with the indicated antibodies. d: Nuclear fractions were prepared from U251 cells pretreated with LY290042 (30 μM), SU6656 (4 μM), SP600125 (25 μM), and U0126 (20 μM) for 30 min before EGF (100 ng/mL) for 6 h. Immunoblotting analyses were performed with the indicated antibodies. Nuclear PCNA and cytoplasmic tubulin were used as controls. e: U87/EGFR cells were pretreated with LY290042 (30 μM), SU6656 (4 μM), SP600125 (25 μM), and U0126 (20 μM) for 30 min before EGF (100 ng/mL) for 6 h. Immunoblotting analyses were performed with the indicated antibodies.
Cytosolic and nuclear fractions were prepared. Immunoblotting analyses were performed with the indicated antibodies. b: U87/EGFR cells with depleted endogenous PKM2 and reconstituted expression of RNAi-resistant WT rPKM2 or rPKM2 S37A were treated with or without EGF (100 ng/mL) for 6 h. Total cell lysates (left panel) and nuclear fractions (right panel) were prepared.

AKT = assay: EGF-induced AKT phosphorylation, immunoblotting; type: cell-based, human; conditions: U87/EGFR cells; LY290042 30 μM or AKT inhibitor 10 μM 30 min before EGF
Experimental: Immunofluorescence analyses of endogenous PKM2 or transiently expressed FLAG-PKM1 were performed with the indicated antibodies. […] Immunoblotting analyses were performed with the indicated antibodies. […] Immunoblotting analyses were performed with the indicated antibodies. […] Immunoblotting analyses were performed with the indicated antibodies.
as §1

ERK1/2 = assay: EGF-induced ERK1/2 phosphorylation, immunoblotting; type: cell-based, human; conditions: U87/EGFR cells; AG1478 1 μM or U0126 20 μM 30 min before EGF 6 h
Experimental: as §2
(§3) Extraction of proteins with a modified buffer from cultured cells was followed by immunoprecipitation and immunoblotting with corresponding antibodies, as described previously (Lu et al., 1998).

PKM2 S37 = conditions: U87/EGFR cells; U0126 20 μM 30 min before EGF 100 ng/mL 30 min
Experimental: FIG. 43: ERK2 phosphorylates PKM2 S37. […] Immunofluorescence analyses were performed with an anti-FLAG antibody (f). Nuclei were stained with Hoechst 33342 (blue).
as §3

PIN1-PKM2 binding = conditions: U0126 20 μM 30 min before EGF 30 min
Experimental: Immunoprecipitation and immunoblotting analyses were performed with the indicated antibodies. a: His-PIN1 immobilized on nickel agarose beads was incubated with lysate of U87/EGFR cells treated with or without U0126 (20 μM) for 30 min before EGF (100 ng/mL) stimulation for 30 min. b: U87/EGFR cells transiently expressing WT FLAG-PKM2 or FLAG-PKM2 S37A were treated with or without EGF (100 ng/mL) for 30 min. […] Data represent the mean±SD of three independent experiments. g: PIN1^−/− cells were reconstituted to express the indicated PIN1 proteins (left panel). The total cell lysates and nuclear fractions were prepared from the indicated cells treated with or without EGF (100 ng/mL) for 6 h (right panel). h: Total cell lysates and nuclear fractions of PIN1^−/− cells or PIN^−/− cells expressing FLAG-PKM2 S37D were prepared.
as §3

PKM2 [2] = conditions: U87 cells; U0126 20 μM 30 min before PDGF-AA 50 ng/mL 6 h
Experimental: (§4) Nuclear PCNA. Immunoblotting analyses were performed with the indicated antibodies. b: U87 cells were cultured in no-serum DMEM and treated with or without U0126 (20 μM) for 30 min before PDGF-AA (50 ng/mL) for 20 h. The media were collected for analysis of glucose consumption (left panel) or lactate production (right panel). Data represent the mean±SD of three independent experiments.

U87 cells = conditions: no-serum DMEM, U0126 20 μM 30 min before PDGF-AA 50 ng/mL 20 h
Experimental: as §4
Cells were seeded in culture dishes, and the medium was changed after 6 h with no-serum DMEM. Cells were incubated for 12-16 h, and the culture medium was then collected for measurement of glucose and lactate concentrations. Glucose levels were determined using a glucose (GO) assay kit (Sigma). Glucose consumption was the difference in glucose concentration compared with DMEM. Lactate levels were determined using a lactate assay kit (Eton Bioscience, San Diego, Calif.).

TPA-induced and PKC kinase activity-dependent degradation of PKCε (PKCε): successfully blocked
SMILES: CN(C)CCCn1cc(C2=C(c3c[nH]c4ccccc34)C(=O)NC2=O)c2ccccc21 [Bis-I]
EGF-induced PKM2 upregulation/expression (PKM2 expression): largely abrogated; also recorded: blocked

TPA-induced and PKC kinase activity-dependent degradation of PKCα (PKCα): successfully blocked
SMILES: Cn1c2ccccc2c2c3c(c4c5ccccc5n(CCC#N)c4c21)CNC3=O [Go6976]

SMILES: O=c1cc(N2CCOCC2)oc2c(-c3ccccc3)cccc12 [LY290042]
EGF-induced nuclear accumulation/translocation of PKM2 (PKM2 [1]; U87/EGFR (and U251) cells, 30 min pretreatment before EGF 100 ng/mL, LY290042 30 μM, SU6656 4 μM, SP600125 25 μM, U0126 20 μM, AG1478 1 μM, cycloheximide 100 μg/mL): only inhibition of MEK/ERK abrogated
EGF-induced phosphorylation of AKT (AKT): blocked

SMILES: N#CC(=C(/N)Sc1ccccc1N)/C(C#N)=C(\N)Sc1ccccc1N [U0126]
EGF-induced nuclear accumulation/translocation of PKM2 (PKM2 [1]): abrogated; also recorded: blocked
EGF-induced phosphorylation of ERK1/2 (ERK1/2): blocked
EGF-induced PKM2 S37 phosphorylation (PKM2 S37): blocked
EGF-increased binding of endogenous PIN1 to endogenous PKM2 (co-immunoprecipitation) (PIN1-PKM2 binding; U87/EGFR cells): blocked
EGF-induced binding of endogenous PKM2 to His-PIN1 (PIN1-PKM2 binding; lysate of U87/EGFR cells): abrogated
PDGF-induced nuclear translocation of PKM2 (PKM2 [2]): blocked
PDGF-induced glucose uptake (U87 cells): blocked
PDGF-induced lactate production (U87 cells): blocked

— patent US20150073033A1, “BIOMARKERS FOR CANCER CHARACTERIZATION AND TREATMENT” (Board of Regents, The University of Texas System, priority 2011, published 2015)
